Measured values taken from patent publication US20070141645A1, “Measuring method using whole blood” (MITSUBISHI KAGAKU IATRON, INC., priority 2005, published 2007).
Like-named read-outs stand apart in the source and are kept apart here.

Columns and labels:
[1] = target: endogenous ALP in whole blood (Homo sapiens, UniProt P05186); settings: for Positive control (S) measured value (count of luminescence): cTnI 10 ng/mL added
Experimental: Each sample was measured using a reagent kit for measuring cardiac troponin I (cTnI). The kit contained a solution of the first antibody specific to cTnI (a solution of magnetic particles), a solution of the labeled second antibody, a B/F washing liquid, a substrate solution, and the like, and was packaged in a cartridge applicable to an automated immunoanalyzer described below. In this example, a buffer not containing a labeled antibody was used, instead of the solution of the second antibody labeled with an alkaline phosphatase (hereinafter referred to as “ALP”). The measurement was carried out using an automated immunoanalyzer for an immunoassay using magnetic particles, as disclosed in Japanese Patent No. 3115501. […] The measuring step in the analyzer will be described below.
A chemiluminescent substrate CDP-Star (Tropics) was used as a substrate. A count of luminescence detected by a photomultiplier tube (PMT) was regarded as a result of the measurement.
Each cartridge for an automatic measurement was filled with each sample, a liquid for diluting a sample, the solution of magnetic particles (coated with the first antibody), the washing liquid for B/F separation, the solution of the second antibody, the substrate solution, and the like, and set to the automated analyzer. The following steps were carried out in accordance with a normal procedure: • (1) The sample solution, the solution of magnetic particles, and the solution of the second antibody, previously adjusted to predetermined dilutions with the diluting liquid, were mixed to generate an immunocomplex by an antigen-antibody reaction. • (2) A B/F separation was carried out to remove unreacted substances as follows. The resulting reaction liquid was aspirated into the tip arranged as a line for aspirating a solution, and the magnetic particles were trapped by contact with a magnet on the outer wall of the tip. The solution was delivered from the tip while trapping the magnetic particles on the inner wall of the tip. After the separation, the washing liquid for the B/F separation filled in another reaction vessel was aspirated and delivered to wash the magnetic particles in the tip. • (3) The magnet was separated from the outer wall of the tip. The substrate solution was aspirated and delivered to disperse the magnetic particles trapped on the inner wall of the tip and carry out an enzyme reaction. • (4) An amount of luminescence was measured by PMT.
(§1) The whole blood sample showing a high background in Example 1 was used as a whole blood negative control, and a plasma obtained by centrifuging the whole blood sample was used as a plasma negative control. Further, a sample obtained by adding a commercially available cTnI (10 ng/mL) to the whole blood sample was used as a whole blood positive control, and a plasma obtained by centrifuging the whole blood positive control was used as a plasma positive control. The obtained 4 samples were measured using the automated immunoanalyzer and the reagent kit for measuring cTnI, as described in Example 1 or 2, except that the ALP-labeled antibody was used as the second antibody.
(§2) Levamisole (SIGMA) was used to examine an inhibitory effect on an endogenous ALP. Levamisole was added to the solution of magnetic particles, the substrate solution, or both thereof at the final concentration of 0.2 mM. When levamisole was added to the solution of magnetic particles, the inhibitor acted in the measuring step (1) of the automated immunoanalyzer described in Example 1. When levamisole was added to the substrate solution, the inhibitor acted in the measuring step (3).

ALP used as the label = settings: addition of levamisole 0.2 mM; positive control
Experimental: as §1, §2

endogenous ALP = endogenous ALP (Homo sapiens, UniProt P05186); settings: 3 weeks
Experimental: To a solution containing 0.4 mM CDP-Star, levamisole was added to final concentrations of 0.4, 1.0 and 4.0 mM to prepare substrate solutions to be examined. As a control, a substrate solution containing 0.4 mM CDP-Star without levamisole was used. Each solution was kept at 4, 25, and 37° C. for 3 weeks, and each remaining activity was measured.
Further, the substrate solutions containing 0.4 mM levamisole and kept at 4° C. and 37° C. for 3 weeks were used to confirm the inhibitory effect of levamisole.

[2] = levamisole 0.2 mM in magnetic particles solution and substrate solution
[3] = levamisole 0.2 mM in substrate solution only
[4] = plasma (a), levamisole 0.2 mM in magnetic particles solution and substrate solution
[5] = plasma (a), levamisole 0.2 mM in substrate solution only
[6] = whole blood (b), levamisole 0.2 mM in magnetic particles solution and substrate solution
[7] = whole blood (b), levamisole 0.2 mM in substrate solution only

Sequence of endogenous ALP in whole blood (P05186 18-501 limits assumed): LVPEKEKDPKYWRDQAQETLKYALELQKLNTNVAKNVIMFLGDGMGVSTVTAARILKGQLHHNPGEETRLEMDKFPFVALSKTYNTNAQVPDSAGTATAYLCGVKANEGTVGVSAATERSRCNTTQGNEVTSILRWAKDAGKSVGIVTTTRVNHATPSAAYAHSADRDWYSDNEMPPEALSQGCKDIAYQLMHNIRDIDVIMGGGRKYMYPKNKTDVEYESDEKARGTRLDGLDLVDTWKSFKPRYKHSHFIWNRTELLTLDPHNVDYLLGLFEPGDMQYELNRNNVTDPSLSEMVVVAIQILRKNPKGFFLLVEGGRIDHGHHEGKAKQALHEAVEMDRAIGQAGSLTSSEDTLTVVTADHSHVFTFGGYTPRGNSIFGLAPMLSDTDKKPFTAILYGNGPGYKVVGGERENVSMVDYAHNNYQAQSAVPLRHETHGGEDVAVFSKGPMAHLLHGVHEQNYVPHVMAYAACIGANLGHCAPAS
Sequence of endogenous ALP (P05186 18-501 limits assumed): as above

increased background caused by an endogenous ALP in whole blood samples or hemolized samples ([1]; addition of levamisole 0.2 mM): suppressed
Negative control b/a (whole blood to plasma) [1, 2]: 2.33
Positive control b/a (whole blood to plasma) [1, 2]: 1.22
b/[levamisole (—) whole blood negative control] [1, 2]: 0.18
b/[levamisole (—) whole blood positive control] [1, 2]: 0.79
Negative control b/a (whole blood to plasma) [1, 3]: 2.41
Positive control b/a (whole blood to plasma) [1, 3]: 1.33
b/[levamisole (—) whole blood negative control] [1, 3]: 0.17
b/[levamisole (—) whole blood positive control] [1, 3]: 0.94
Positive control (S) measured value (count of luminescence) [1, 4]: 78622
Positive control (S) measured value (count of luminescence) [1, 5]: 84776
Negative control (N) measured value (count of luminescence) [1, 4]: 808
S/N (positive control to negative control) [1, 4]: 97.3
Negative control (N) measured value (count of luminescence) ([1]; plasma (a), levamisole 0.2 mM in substrate (CDP-star) solution only): 708
S/N (positive control to negative control) [1, 5]: 119.7
Positive control (S) measured value (count of luminescence) [1, 6]: 95856
Positive control (S) measured value (count of luminescence) [1, 7]: 113017
Negative control (N) measured value (count of luminescence) [1, 6]: 1883
S/N (positive control to negative control) [1, 6]: 50.9
Negative control (N) measured value (count of luminescence) ([1]; whole blood (b), levamisole 0.2 mM in substrate (CDP-star) solution only): 1705
S/N (positive control to negative control) [1, 7]: 66.3
count with stored substrate solution (inhibitory effect of levamisole) (endogenous ALP; 0.4 mM levamisole in 0.4 mM CDP-Star substrate solution kept at 4° C.): 4086
count with stored substrate solution (inhibitory effect of levamisole) (endogenous ALP; 0.4 mM levamisole in 0.4 mM CDP-Star substrate solution kept at 37° C.): 2920
SMILES: c1ccc([C@H]2CN3CCSC3=N2)cc1 [levamisole]
effect on the ALP used as the label (ALP used as the label): did not adversely affect
